Measured values published in patent US20260248832A1, “COMPOSITION COMPRISING CYTIDINE ANALOGS AND USES AND METHODS THEREOF” (UNIVERSITÄT HEIDELBERG, priority 2022, published 2026).
≈ marks a conversion by molar mass, not a printed value.

How the values were obtained:
Type in all cases: physicochemical
[1] = Solubility of decitabine in different non-aqueous media; conditions: DMSO
Procedure: Due to the unsuitability of aqueous media, different non-aqueous media were tested with regard to the solubility of decitabine in the non-aqueous media. As decitabine is a nucleoside, several polar, water-free solvents, that would be well suited for further formulation experiments, were selected to determine the solubility of decitabine. […] Therefore, the DMSO stock was chosen as the next candidate for stability and formulation testing.

[2] = Long-term stability of decitabine in DMSO (HPLC); conditions: 3 mM stock in DMSO; room temperature and 2-8° C.; almost three months
Procedure: (§1) Chem Res Toxicol 2009; 22 (6): 1194-204.
(§2) • 1. […] Immediate Injection • 3. […] Chem Res Toxicol 2009; 22 (6): 1194-204.
A 3 mM stock solution of decitabine in DMSO was prepared and one aliquot each was stored at room temperature and at 2-8° C. Its β-decitabine concentration was determined by HPLC for almost three months.

[3] = Stability of decitabine in aqueous media (HPLC); conditions: DMSO stock mixed 1:2 with 20 mM ammonium acetate pH 6.8; room temperature (about 25° C.); up to 14 days
Procedure: as §1, §2
To test the stability of β-decitabine in an aqueous medium, two stock solutions of β-decitabine in DMSO were prepared and mixed 1:2 with the HPLC mobile phase (20 mM ammonium acetate pH 6.8). The samples were stored at room temperature (about 25° C.) and their content of β-decitabine, which is considered to represent the active anomer of decitabine, was measured for up to 14 days.

solubility ([1]; organic solvent or mixture): ~46 mg/mL (≈ 202 mM)
solubility of decitabine for relevant dosage strengths ([1]; four tested solvents: glycerol, PEG 300, absolute ethanol): only DMSO showed sufficient solubility
change in β-decitabine concentration in DMSO [2]: almost no change
stability of β-decitabine in aqueous medium [3]: observed instability
Structure (SMILES): Nc1ncn([C@H]2C[C@H](O)[C@@H](CO)O2)c(=O)n1 [decitabine, 5-aza-2′-deoxycytidine]
